Experimental data from patent US4125606A, “Octapeptide useful for the treatment of diabetes” (Choay S.A., priority 1974, dated 1978).
Where no end group is shown, it is not given here.

Legend:
[1] = tested on: mice; assay: Influence on glycemia in mice after glucose injection; type: in vivo
Source text: Influence of octapeptide (I) on glycemia has been determined in mice under conditions similar to those described for rabbits. The experiment included two series of tests aimed at studying the immediate effects and the prolonged effects.
In the first series of tests, a simultaneous injection of glucose and of the octapeptide (I) was made, and the lowering of glycemia with respect to that of control animals which had not received glucose, was followed as a function of time.
The injections were respectively of 0.25 g of glucose and 2 mg per kilo of body weight of the animal, namely about 40 μ/g, of octapeptide (I) or […].
In the second series of tests, the mice received the product before the injection of glucose. Three injections each of 40 μg of octapeptide (I) were administered respectively 72, 48 and 24 hours before the injection of glucose.

[2] = tested on: glucose receptors of the Langerhans islets; assay: Insulin liberated by Langerhans islets removed from treated animals; type: in vivo; conditions: islets removed one day or four days after injection; medium supplemented with glucose
Protocol: Finally, the effect of the octapeptide (I) on the glucose receptors of the Langerhans islets was determined. For this purpose, the octapeptide (I) was injected into animals.
One day or four days later, the animals were killed and the islets of Langerhans removed. The latter were placed in a reaction medium supplemented with glucose, and the amount of insulin liberated was determined and compared to controls.

[3] = tested on: hepatic cells; assay: Insulin binding to hepatic cells; type: cell-based
Protocol: In the same way, the ratio of insulin binding to hepatic cells placed in a suitable reaction medium was measured. When the medium contains octapeptide (I), the ratio of insulin binding to the hepatic cells increases. The result is similar if the said cells are incubated with octapeptide (I).

[4] = molecular target: glyceraldehyde 3-phosphate dehydrogenase (Homo sapiens, UniProt P04406); assay: Enzymatic effect in vitro: lifting of somantine inhibition of glyceraldehyde 3-phosphate dehydrogenase; type: biochemical
Protocol: In this test, the compound (I) was tested for its ability to raise the inhibition of a somantine extracted from a plasma with respect to the action of glyceraldehyde 3-phosphate dehydrogenase.
To this end, the activity of the enzyme in the presence successively of somantine alone, of the compound (I) alone, and finally in the presence of somantine and of the compound (I), were measured.
In this test, the glyceraldehyde 3-phosphate dehydrogenase was used at a concentration of 0.5 μg/ml, the somantine at 25 μg/ml, and the compound (I) at 50 μg/ml.
The method used for the measurements is that of Pihl and Lang (J. Biol. Chem 237: 1356-1362, 1962).

[5] = tested on: diabetic rats; assay: Effect on glycemia in diabetic animals; type: in vivo; conditions: diabetic rats fasted 4 hours; glucose 0.5 g/kg; octapeptide 2 μg/g
Protocol: In this test, the drop in glycemia was compared after the simultaneous injection of glucose, on the one hand, and, on the other hand, either of the octapeptide at the dosage of […], or of insulin, or again of both at once. In that latter case the dosage of octapeptide used was also 2 μg/g.
The tests were carried out on diabetic rats, kept fasting for 4 hours before the injection of glucose (at the dose of 0.5 g/kg of animal).

[6] = tested on: mice; assay: Tolerance: acute and subacute toxicity study in mice; type: in vivo; conditions: 1 month, daily dosages 5 to 10 times the active dosage
Protocol: An acute and subacute toxicity study was carried out on mice for 1 month, each mouse receiving daily dosages corresponding to 5 to 10 times the active dosage.

[7] = tested on: adult rabbits; assay: Effect on the in vivo effect of insulin: intravenous glucose test in the rabbit
Protocol: The assays were carried out in the course of the tests carried out to determine the resistance to glucose injected by the intravenous route in the rabbit.
These tests were done on adult rabbits, which had been subjected to prior fasting for 24 hours. Blood was drawn off and the glucose level in the blood samples was determined. The measurement was carried out by the ferricyanide method as adapted for the "Technicon Autoanalyser" (J. Biol. Chem. 120: 51-55, 1937). In this way the glucose level on fasting, then its variation after the intravenous injection of glucose, at the dose of 1 gram per kilo, was determined. These measurements were then renewed in rabbits which had received, 5 minutes after the glucose, an intravenous injection of the compound (1) (5 μg/kg).

[8] = tested on: insulin receptors of lipid cells; assay: Insulin binding to trypsinated lipid cells; type: cell-based; conditions: octapeptide introduced into the medium; trypsinated cells alone no longer fix insulin
Source text: In an attempt to elucidate the mechanism of action of the octapeptide (I) with respect to insulin, the phenomena were first studied at the level of the insulin receptors of lipid cells trypsinated to destroy said receptors.

[9] = tested on: isolated hemidiaphragm of the rat; assay: Consumption of glucose in vitro, isolated rat hemidiaphragm; type: cell-based, Wistar albino male rats; conditions: related to the weight of tissue in grams and per hour; glucose 2 mg/ml, insulin 500 μU/ml, compound (I) 250 μg/ml
Protocol: To follow this consumption, the isolated hemidiaphragm of the rat in vitro was used. The method employed is that described by Park et al. (Effect of insulin on free glucose content of rat diaphragm in vitro - Amer. J. Physiol. 182: 12-16, 1955). The hemidiaphragm derived from Wistar albino male rats each weighing 200 to 250 g was used. The rats were fed freely for 7 days and then starved for 24 hours. The solutions studied contained 2 mg/ml of glucose, 500 μU/ml of insulin. The compound (I) was introduced at 250 μg/ml. The consumption of glucose related to the weight of tissue in grams and per hour was under these conditions: […]

Sequence of glyceraldehyde 3-phosphate dehydrogenase (P04406 whole entry, species assumed): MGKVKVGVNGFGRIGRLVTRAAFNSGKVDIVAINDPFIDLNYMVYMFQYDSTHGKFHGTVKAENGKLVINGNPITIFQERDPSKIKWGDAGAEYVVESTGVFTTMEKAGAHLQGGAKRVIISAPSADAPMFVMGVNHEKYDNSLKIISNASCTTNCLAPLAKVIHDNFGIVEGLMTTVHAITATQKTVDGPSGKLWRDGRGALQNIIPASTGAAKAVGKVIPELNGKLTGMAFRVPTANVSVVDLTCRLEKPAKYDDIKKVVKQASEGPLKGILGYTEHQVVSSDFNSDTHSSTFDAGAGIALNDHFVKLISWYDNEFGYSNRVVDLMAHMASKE

Substance	drop in glycemia, immediate effect (in words) ([1]; simultaneous injection of glucose 0.25 g and octapeptide 2 mg per kilo)	drop in glycemia, prolonged effect (in words) ([1]; three injections of 40 μg at 72, 48 and 24 hours before glucose, versus control mice receiving only glucose)	level of liberated insulin compared to controls (in words) [2]	ratio of insulin binding to hepatic cells (in words) ([3]; cells incubated with octapeptide (I))	ratio of insulin binding to hepatic cells (in words) ([3]; medium contains octapeptide (I))	effect on the inhibiting effect of somantine (in words) ([4]; compound (I) 50 μg/ml together with somantine 25 μg/ml)	effect on the activity of the enzyme (in words) ([4]; compound (I) alone, 50 μg/ml)	course of glycemia after glucose injection (in words) [5]	toxic effect, macro and microscopic studies (in words) [6]	decrease in the blood glucose level after intravenous glucose (in words) ([7]; rabbits fasted 24 hours, glucose 1 g/kg i.v., compound 5 μg/kg i.v. 5 minutes after the glucose)	glucose level reached, compared with fasting level (in words) ([7]; rabbits, glucose 1 g/kg i.v., compound 5 μg/kg i.v.)	persistence of the effect on carbohydrate metabolism (in words) ([7]; similar tests at intervals of several days after the injection)	insulin binding to trypsinated lipid cells (in words) [8]	Consumption of glucose [9] [mg]
LSRLFDNA [compound (I), leucyl - seryl - arginyl - leucyl - phenylalanyl - aspartyl - asparaginyl - alanine]	drop in glycemia distinctly more accentuated	more rapid drop in glycemia	very substantial increase	similar	increases	inhibiting effect of somantine to be partly suppressed	practically without effect on the activity of the enzyme	glycemia is practically unmodified	not shown any toxic effect	decrease in the glucose level is greater	glucose level even reached values less than those which were measured in the fasting rabbits	persists several days	the binding reappears	–
insulin: insulin; in the hemidiaphragm test 500 μU/ml in a 2 mg/ml glucose solution [reference compound]	–	–	–	–	–	–	–	decreases rapidly, stabilises, then rises again	–	–	–	–	–	4.10 ± 0.15
